Laboratory results reported in patent US9060971B2, “Combination pharmaceutical agents as inhibitors of HCV replication” (Enanta Pharmaceuticals, Inc., priority 2010, dated 2015).

Assays:
[1] = test system: HCV 1b genotype replicon; assay: HCV replicon drug screening assay (quantitative RT-PCR or luciferase), genotype 1b; type: cell-based; conditions: Hepatitis C virus; HCV 1b genotype replicon; quantitative RT-PCR or luciferase assay; read-out: Genotype-1b replicon EC50 Range
In short: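 Huh-derived subgenomic genotype 1b replicon lines (SGR 11-7, neo; Huh-luc/neo-ET, firefly luciferase with adaptive mutations) grown at 37 °C. EC50 from HCV RNA by TaqMan one-step qRT-PCR normalised to GAPDH RNA. Cytotoxicity measured in parallel by MTS.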

[2] = test system: "Huh-luc/neo-ET" HCV replicon; assay: In vitro synergy assay, two drug combinations, luciferase, Bliss additivity; type: cell-based; conditions: 72 h
From the text: The coding sequence of the published HCV replicon was synthesized and subsequently assembled in a modified plasmid pBR322 (Promega, Madison, Wis.) using standard molecular biology techniques. One replicon cell line (“SGR 11-7”) stably expresses HCV replicon RNA which consists of (i) the HCV 5′UTR fused to the first 12 amino acids of the capsid protein, (ii) the neomycin phosphotransferase gene (neo), (iii) the IRES from encephalomyocarditis virus (EMCV), and (iv) HCV NS2 to NS5B genes and the HCV 3′UTR. Another replicon cell line (“Huh-luc/neo-ET”) described by Vrolijk et. al. (Vrolijk et. al. (2003) Journal of Virological Methods 110:201-209, expressly incorporated by reference in its entirety) stably expresses HCV replicon RNA which consists of (i) the HCV 5′UTR fused to the first 12 amino acids of the capsid protein, (ii) the firefly luciferase reporter gene, (iii) the ubiquitin gene, (iv) the neomycin phosphotransferase gene (neo), (v) the IRES from encephalomyocarditis virus (EMCV), and (vi) HCV NS3 to NS5B genes that harbor cell culture adaptive mutations (E1202G, T12801, K1846T) and the HCV 3′UTR.
Since clinical drug resistance often develops in viral infections following single agent therapies, there is a need to assess the additive, antagonistic, or synergistic properties of combination therapies. We used the HCV replicon system to assess the potential use of our NS5A inhibitors in combination therapies with Interferon alpha, cyclosporine analogs and inhibitors targeting other HCV proteins. The acute effects of combinations of drugs were studied in the “Huh-luc/neo-ET” replicon with each chemical agent titrated in an X or Y direction in a 6 point two-fold dilution curve centered around the EC50 of each drug. Briefly, replicon cells were seeded at 7,000 cells per well in 90 ul DMEM (without phenol red, Invitrogen Cat. #31053-036) per well with 10% FCS, 1% non-essential amino acids, 1% of Glutamax and 1% of 100× penicillin/streptomycin and incubated overnight at 37° C., 5% C02, 100% relative humidity. 16-20 h after seeding cells, test compounds previously solubilized and titrated in dimethyl sulfoxide (“DMSO”) from each X plate and Y plate were diluted 1:100 in DMEM (without phenol red, Invitrogen Cat. #31053-036) with 10% FCS, 1% non-essential amino acids, 1% of Glutamax and 1% of 100× penicillin/streptomycin and added directly to the 96-well plate containing cells and growth medium at a 1:10 dilution for a final dilution of compound and DMSO of 1:1000 ([…] final concentration). Drug treated cells were incubated at 37° C., 5% C02, 100% relative humidity for 72 hours before performing a luciferase assay using 100 ul per well BriteLite Plus (Perkin Elmer) according to the manufacturer's instructions. Data analysis utilizes the method published by Prichard and Shipman (Antiviral Research, 1990. 14:181-205). Using this method, the combination data were analyzed for antagonistic, additive, or synergistic combination effects across the entire combination surface created by the diluted compounds in combination.
We used the HCV replicon system to assess the potential use of our NS5A inhibitor in combination therapies with Interferon alpha, cyclosporine analogs or inhibitors targeting other HCV proteins. Several HCV antivirals, including protease inhibitors (ITMN-191, SCH503034, VX-950), a nucleoside analog (such as those described in WO01/90121(A2), U.S. Pat. No. 6,348,587B1, WO01/60315 or WO01/32153), a nonnucleoside NS5B polymerase inhibitor (GSK625433), a cyclosporine analog, as well as Interferon alpha, are tested in combination with Compounds 90, 93 or 95 herein, inhibitors of HCV NS5A. Antivirals were tested at five concentrations each, diluted in DMSO by 2-fold dilutions. The antivirals were tested as monotherapies and in combination with Compounds 90, 93 or 95 (described herein) at various concentration ratios. […]

[3] = in combination with Boceprevir (SCH503034)
[4] = in combination with Interferon-alpha
[5] = in combination with Telaprevir (VX-950)
[6] = in combination with Cyclosporine analog

Row | Structure (SMILES) | EC50 [1] | Bliss Volume (%) at 95% Confidence Intervals, Antagonism [2, 3] | Bliss Volume (%) at 95% Confidence Intervals, Synergy [2, 3] | Result (combination effect) [2, 3] | Synergy Score [2, 3] | Bliss Volume (%) at 95% Confidence Intervals, Antagonism ([2]; in combination with GSK625433) | Bliss Volume (%) at 95% Confidence Intervals, Synergy ([2]; in combination with GSK625433) | Result (combination effect) ([2]; in combination with GSK625433) | Synergy Score ([2]; in combination with GSK625433) | Bliss Volume (%) at 95% Confidence Intervals, Antagonism ([2]; in combination with ITMN-191) | Bliss Volume (%) at 95% Confidence Intervals, Synergy ([2]; in combination with ITMN-191) | Result (combination effect) ([2]; in combination with ITMN-191) | Synergy Score ([2]; in combination with ITMN-191) | Bliss Volume (%) at 95% Confidence Intervals, Antagonism [2, 4] | Bliss Volume (%) at 95% Confidence Intervals, Synergy [2, 4] | Result (combination effect) [2, 4] | Synergy Score [2, 4] | Bliss Volume (%) at 95% Confidence Intervals, Antagonism ([2]; in combination with R7128) | Bliss Volume (%) at 95% Confidence Intervals, Synergy ([2]; in combination with R7128) | Result (combination effect) ([2]; in combination with R7128) | other results
1 | COC(=O)N[C@H](C(=O)N1CCC[C@H]1c1nc(-c2ccc(C#Cc3ccc4[nH]c([C@@H]5CC6(CC6)CN5C(=O)[C@@H](NC(=O)OC)C(C)C)nc4c3)cc2)c[nH]1)C(C)C [Compound 93] | < 1 nM | 0% | 63% | Synergistic | 63% | 0% | 113% | Synergistic | 113% | 0% | 14% | Additive | 14% | 0% | 38% | Synergistic | 38% | 0% | 14% | Additive | Synergy Score ([2]; in combination with R7128): 14%; Bliss Volume (%) at 95% Confidence Intervals, Antagonism [2, 5]: 0%; Bliss Volume (%) at 95% Confidence Intervals, Synergy [2, 5]: 7%; Result (combination effect) [2, 5]: Additive; Synergy Score [2, 5]: 7%
2 | COC(=O)N[C@H](C(=O)N1CCC[C@H]1c1ncc(-c2ccc(C#Cc3ccc4nc([C@@H]5CCCN5C(=O)[C@@H](NC(=O)OC)C(C)C)[nH]c4c3)cc2)[nH]1)C(C)C [Compound 90] | < 1 nM | 0% | 48% | Synergistic | 48% | −1% | 12% | Additive | 11% | −9% | 2% | Additive | −7% | −14% | 6% | Additive | −8% | 0% | 34% | Synergistic | Bliss Volume (%) at 95% Confidence Intervals, Antagonism [2, 6]: 0%; Bliss Volume (%) at 95% Confidence Intervals, Synergy [2, 6]: 0%; Result (combination effect) [2, 6]: Additive; Synergy Score [2, 6]: 0%; Synergy Score ([2]; in combination with R7128): 34%; Bliss Volume (%) at 95% Confidence Intervals, Antagonism [2, 5]: −1%; Bliss Volume (%) at 95% Confidence Intervals, Synergy [2, 5]: 0%; Result (combination effect) [2, 5]: Additive; Synergy Score [2, 5]: −1%
3 | COC(=O)N[C@H](C(=O)N1CC2(CC2)C[C@H]1c1nc(-c2ccc(C#Cc3ccc4[nH]c([C@@H]5CC6(CC6)CN5C(=O)[C@@H](NC(=O)OC)C(C)C)nc4c3)cc2)c[nH]1)C(C)C [Compound 95] | < 1 nM | 0% | 44% | Synergistic | 44% | 0% | 0% | Additive | 0% | 0% | 5% | Additive | 5% | −2% | 0% | Additive | −2% | 0% | 28% | Synergistic | Synergy Score ([2]; in combination with R7128): 28%; Bliss Volume (%) at 95% Confidence Intervals, Antagonism [2, 5]: 0%; Bliss Volume (%) at 95% Confidence Intervals, Synergy [2, 5]: 5%; Result (combination effect) [2, 5]: Additive; Synergy Score [2, 5]: 5%
4 | COC(=O)N[C@H](C(=O)N1[C@@H]2CC[C@@H](C2)[C@H]1c1nc(-c2ccc(C#Cc3ccc4[nH]c([C@@H]5[C@H]6CC[C@H](C6)N5C(=O)[C@@H](NC(=O)OC)C(C)C)nc4c3)cc2)c[nH]1)C(C)C [Compound 126] | < 1 nM |  |  |  |  |  |  |  |  |  |  |  |  |  |  |  |  |  |  |  | 
5 | COC(=O)N[C@H](C(=O)N1CCC[C@H]1c1nc(-c2ccc(C#Cc3ccc4[nH]c([C@@H]5CC(=O)CN5C(=O)[C@@H](NC(=O)OC)C(C)C)nc4c3)cc2)c[nH]1)C(C)C [Compound 66] | < 1 nM |  |  |  |  |  |  |  |  |  |  |  |  |  |  |  |  |  |  |  | 
6 | COC(=O)N[C@H](C(=O)N1CCC[C@H]1c1nc(-c2ccc(C#Cc3cc4nc([C@@H]5CCCN5C(=O)[C@@H](NC(=O)OC)C(C)C)[nH]c4cc3Cl)cc2)c[nH]1)C(C)C [Compound 65] | < 1 nM |  |  |  |  |  |  |  |  |  |  |  |  |  |  |  |  |  |  |  | 
7 | COC(=O)N[C@H](C(=O)N1CCC[C@H]1c1nc(-c2ccc(C#Cc3ccc4[nH]c([C@@H]5CCCN5C(=O)[C@@H](NC(=O)OC)[C@@H](C)OC)nc4c3)cc2)c[nH]1)C(C)C [Compound 80] | < 1 nM |  |  |  |  |  |  |  |  |  |  |  |  |  |  |  |  |  |  |  | 
